Holding throughout (assay type): cell-based
The subject of one assay is DLBCL cell lines. The assay can be described thus: Panel of twenty three DLBCL cell lines, 5-day viable cells and apoptosis. Conditions: panel of twenty three cell lines. As for the experimental part:
Compound 1 activity was evaluated in a panel of twenty three DLBCL cell lines. The DLBCL panel includes seven cell lines classified as activated B-cell (ABC) subtype, thirteen cell lines classified as the germinal center B-cell (GCB) subtype, and three cell lines classified as primary mediastinal B-cell lymphoma (PMBL). […] Thus, eleven cell lines have a t(8;14)(q24;q32) and/or t(14;18)(q32;q21.3), corresponding to MYC and BCL2 gene rearrangements into an immunoglobulin (IG) heavy chain locus as well as additional rearrangements affecting BCL6 (Table 1). The translocation of MYC, BCL6, or BCL2 to an IG locus usually leads to high levels of mRNA and protein due to the active transcription driven by a constitutively active IG promoter. Therefore, the protein levels of these genes were monitored by Western blots, confirming the overexpression of BCL2, MYC, and/or BCL6 in all the cell lines evaluated (FIG. 1, panel A). Expressions of CRBN protein and known substrates, Ikaros, Aiolos, and ZFP91 were also evaluated (FIG. 1, panels B and C).
The panel of cell lines were treated with increasing doses of compounds for five days, at which time the number of viable cells was measured and the amount of apoptosis was determined by 7-AAD exclusion and Annexin V staining using flow cytometry. […] Overall, the sensitivity to Compound 1 was independent of cell of origin (COO), since ABC, GCB, and PMBL subtypes were sensitive to Compound 1 (Table 2).

Another assay concerns Farage. The assay can be described thus: 5-day viable cell number and apoptosis (7-AAD exclusion/Annexin V flow cytometry). As to conditions: Farage cells (Table 3); read-out: IC50. The text has this:
(§1) The DLBCL panel includes seven cell lines classified as activated B-cell (ABC) subtype, thirteen cell lines classified as the germinal center B-cell (GCB) subtype, and three cell lines classified as primary mediastinal B-cell lymphoma (PMBL). […] The translocation of MYC, BCL6, or BCL2 to an IG locus usually leads to high levels of mRNA and protein due to the active transcription driven by a constitutively active IG promoter. […] Expressions of CRBN protein and known substrates, Ikaros, Aiolos, and ZFP91 were also evaluated (FIG. 1, panels B and C).
(§2) The panel of cell lines were treated with increasing doses of compounds for five days, at which time the number of viable cells was measured and the amount of apoptosis was determined by 7-AAD exclusion and Annexin V staining using flow cytometry.
Background: In flow cytometry, cells or beads pass a laser one at a time.

The next assay has as its system SU-DHL-2. The assay is described as above. As to conditions: Homo sapiens; SU-DHL-2 cells (Table 3); read-out: IC50.
Description: as §1, §2

For another assay, the system named is OCI-LY-19. The assay is described as above. Conditions: Homo sapiens, OCI-LY19; OCI-LY-19 cells (Table 3); read-out: IC50.
Description: as §1, §2

The subject of the next assay is KARPAS-422. The assay is described as above. Conditions: Homo sapiens; KARPAS-422 cells (Table 3); read-out: IC50.
Description: as §1, §2

Another assay relates to SU-DHL-16. The assay is described as above. As to conditions: Homo sapiens; SU-DHL-16 cells (Table 3); read-out: IC50.
Description: as §1, §2

The next assay deals with WSU-DLCL2. Described as above. As to conditions: Homo sapiens, WSUDLCL2; WSU-DLCL2 cells (Table 3); read-out: IC50.
Description: as §1, §2

The next assay relates to WSU-DLCL2 DoxoR. The assay can be described thus: Viable cells/apoptosis in doxorubicin-resistant and matching parental lines. As to conditions: Homo sapiens, WSUDLCL2, read-out: Doxorubicin IC50. As for the experimental part:
(§3) The activity of Compound 1 was also evaluated in cell lines with acquired resistance to doxorubicin (Table 4). Doxorubicin-resistant cell lines (DoxoR) were generated by culturing the parental cell lines in vitro with increasing concentrations of doxorubicin for a long period of time (˜9 to 18 months) until they were able to grow in the presence of a relatively high concentration of doxorubicin (1 μM). Matching parental (M-Parent) cells were generated by maintaining the parental cells in culture without treatment for the same amount of time (˜9 to 18 months). The growth-inhibitory effect of doxorubicin on parental cells and the corresponding resistant cells was evaluated by measuring the number of viable cells and extent of apoptosis by 7-AAD exclusion and Annexin V staining using flow cytometry.
(§4) The effects of Compound 1 on the viability of doxorubicin-resistant versus parental cell lines was determined (FIG. 2; Table 5).

The subject of the next assay is U2932 DoxoR. The assay is described as above. As to conditions: Homo sapiens; U2932 DoxoR; read-out: Doxorubicin IC50. As for the experimental part: as §3, §4
For a further assay, the system named is Oci-Ly10 DoxoR. The assay is described as above. Conditions: Homo sapiens; Oci-Ly10 DoxoR; read-out: Doxorubicin IC50. As for the experimental part: as §3, §4
The subject of a further assay is Oci-Ly10 M-Parental. Described as above. As to conditions: Homo sapiens; Oci-Ly10 M-Parental; read-out: Doxorubicin IC50. As for the experimental part:
as §3, §4

The subject of the next assay is SU-DHL-4 M-Parental. Described as above. Conditions: Homo sapiens, read-out: Doxorubicin IC50. As for the experimental part:
as §3, §4

For a further assay, the system named is WSU-DLCL2 M-Parental. The assay is described as above. Conditions: Homo sapiens, WSUDLCL2, read-out: Doxorubicin IC50. As for the experimental part: as §3, §4
For the next assay, the system named is SU-DHL-4 DoxoR. Described as above. Conditions: Homo sapiens; SU-DHL-4 DoxoR; read-out: Doxorubicin IC50. As for the experimental part:
as §3, §4

The test system of another assay is U2932 M-Parental. Described as above. Conditions: Homo sapiens, read-out: Doxorubicin IC50. As for the experimental part: as §3, §4

With `COc1cccc2c1C(=O)c1c(O)c3c(c(O)c1C2=O)C[C@@](O)(C(=O)CO)C[C@@H]3O[C@H]1C[C@H](N)[C@H](O)[C@H](C)O1` [Doxorubicin, reference compound], the “sensitivity of all DLBCL cell lines” value with DLBCL cell lines is “strongly sensitive”. Moreover, the IC50 in the assay with Farage was determined as 1.2 µM; in the assay on SU-DHL-2 it was 1.3 µM; with OCI-LY-19, 2 µM; with KARPAS-422, 1 µM; with SU-DHL-16 it was 1.5 µM; with WSU-DLCL2 it was 1.5 µM. The half-maximal inhibitory concentration (IC50) is 1.6 µM in the assay with WSU-DLCL2 DoxoR; 1.08 µM with U2932 DoxoR; 1.4 µM in the assay with Oci-Ly10 DoxoR; 0.02 µM with Oci-Ly10 M-Parental; 0.01 µM in the assay with SU-DHL-4 M-Parental; 0.01 µM with WSU-DLCL2 M-Parental. In addition, the values for the half-maximal inhibitory concentration (IC50) in the assay with SU-DHL-4 DoxoR and in the assay with U2932 M-Parental were 1.5 µM and 0.01 µM, respectively.

For orientation: IC50 means the concentration that inhibits the measured activity by half.

The values are drawn from US20210116454A1, “METHODS FOR TREATING A HEMATOLOGICAL CANCER AND THE USE OF COMPANION BIOMARKERS FOR 2-(2,6-DIOXOPIPERIDIN-3-YL)-4-((2-FLUORO-4-((3-MORPHOLINOAZETIDIN-1-YL)METHYL)BENZYL)AMINO)ISOINDOLINE-1,3-DIONE” (CELGENE CORPORATION, priority 2019, published 2021).
